Tests used:
Type in all cases: cell-based
ENTR indicator strains = assay: Dose response deferred antagonism assay, producer M18: average over indicators
[1] = test system: indicator bacterial test strains; assay: Inhibitory activity of freeze dried raw ingredient powder, K12 and M18 combination; settings: galactose 0.5% w/w; raffinose 2.5% w/w; or combination
Description: Method: The amount of raffinose and galactose used was calculated based on the volume of the area of the producer streak, (which was calculated to be 4.25 g) to allow for the absorption of the saccharides into the agar. Based on this, amount of 0.021 g (i.e. 0.5% w/w galactose of 4.25 g agar volume) of galactose, 0.11 g (i.e 2.5% w/w) of raffinose and the combination of galactose (0.5% w/w) and raffinose (2.5% w/w) (0.13 g total) were weighed into sterile containers. K12 and/or M18 raw ingredient were suspended and diluted with sterile distilled water to a concentration of 1-2×10^6 cfu/100 μl. Then, […] of K12 only, M18 only, and K12±M18 suspensions were spread as a 1 cm streak down the middle of a CABCa agar plate using a sterile spreader. […] Bacterial growth was then removed using a microscope slide, and the pH of the agar in the producer streak area was measured and adjusted to pH 6.5-7.5 using 0.5M sodium carbonate (pH 11) before surface sterilizing the plates with chloroform vapour. […] Zones of inhibition for each test organism were then measured in mm using a ruler. The amount of raffinose and galactose to be used was calculated based on the volume of the area of the producer streak, (which was calculated to be 4.25 g) to allow for absorption into the agar.

M. catarrhalis TW1 = assay: Deferred antagonism assay, producer S. salivarius M18
Description: 1-2 producer strain colonies were transferred from a stock plate into 900 μL of suspension solution using a fresh cotton swab. Following this, suspensions were vortexed, and a sample was inoculated onto solid culture media using a fresh cotton swab. The inoculation was a streak that runs diametrically across the agar plate in a 1.5 cm wide strip. The plate was then incubated. Following incubation all visible colonies were removed by swabbing them from the agar surface. The plates were then treated with chloroform by dispensing 2 ml of chloroform onto 4 cm×4 cm piece of cloth and sealing the inverted agar plate on top for 30 minutes. The plates were then air dried for 30 minutes following chloroforming. 1-2 indicator strain colonies were then transferred from a stock plate into complementary suspension solution. The suspensions were then vortexed, and a sample was inoculated onto the same agar surface. These samples were streaked in a perpendicular direction to the initial producer streak.
Each indicator streak was prepared with fresh a suspension containing cells from a corresponding stock plate containing the indicator strain of interest. Indicator strains suspension samples were transferred using a fresh cotton swab. Results were measured by qualitatively reviewing the subsequent (if any) sizes of the zones of inhibition (ZOI) of indicator strain colony growth. A positive result is when there is a distinctive reduction or complete inhibition of indicator colony growth on the culture medium.
CABCa agar plates containing various concentrations of saccharide were prepared according to the methods described in Method 1. Producer strains were transferred from stock agar plates into 900 μL THB using a fresh cotton swab. A plastic spread plater was cut to approximately 1.2 cm width and then dipped into ethanol and left to air dry to ensure sterility. A 100 μL sample of the producer strain suspension was then dispensed onto the agar surface in a straight line running diametrically across the agar surface in (approximately) 20 μL spots. The spots were spaced approximately 1.5 cm apart from each other. The plastic spreader was then used to evenly distribute the spots across the agar surface in a 1.5 cm wide strip. This step was taken to ensure an even producer streak was inoculated onto the agar surface and provided an approximate measure of the initial inoculum concentration. Separate plastic spreaders were used for samples containing different producer strains. The samples were left to soak into the agar surface until there was no visible liquid remaining on the agar surface (approximately 20 minutes). Following producer streak preparations, the deferred antagonism assay protocol was followed as per Method 2. Results were recorded by measuring the size of the zone of inhibition (ZOI) in mm.
A dose response assay was carried out according to method 3 above, except a 1.2 cm streak was used. For the individual saccharide testing the pH of the producer streak was adjusted after the growth of producer to change the acidic conditions.

Row | Compound | Average ZOI change (ENTR indicator strains; 1.5% galactose) [mm] | inhibitory activity of freeze-dried raw ingredient powder of K12 and M18 combination [1] | increase in zone of inhibition M. catarrhalis TW1 (M. catarrhalis TW1; 1.0% (w/v) galactose) [mm] | increase in zone of inhibition M. catarrhalis TW1 (M. catarrhalis TW1; 1.5% (w/v) galactose) [mm] | Average ZOI change (ENTR indicator strains; 1.5% raffinose) [mm] | change in zone of inhibition size M. catarrhalis TW1 (M. catarrhalis TW1; 1.5% (w/v) raffinose) [mm] | Zone of inhibition M. catarrhalis TW1 (M. catarrhalis TW1; Raffinose 1.7% wt) [mm] | Zone of inhibition M. catarrhalis TW1 (M. catarrhalis TW1; Raffinose 1.7% wt, pH adjusted) [mm] | Zone of inhibition M. catarrhalis TW1 (M. catarrhalis TW1; Raffinose 2.5% wt) [mm] | Zone of inhibition M. catarrhalis TW1 (M. catarrhalis TW1; Raffinose 2.5% wt, pH adjusted) [mm] | Zone of inhibition M. catarrhalis TW1 (M. catarrhalis TW1; Raffinose 3.3% wt) [mm] | Zone of inhibition M. catarrhalis TW1 (M. catarrhalis TW1; Raffinose 3.3% wt, pH adjusted) [mm] | Zone of inhibition M. catarrhalis TW1 (M. catarrhalis TW1; Raffinose 5% wt) [mm] | Zone of inhibition M. catarrhalis TW1 (M. catarrhalis TW1; Raffinose 5% wt, pH adjusted) [mm] | Zone of inhibition M. catarrhalis TW1 (M. catarrhalis TW1; Raffinose 10% wt) [mm] | Zone of inhibition M. catarrhalis TW1 (M. catarrhalis TW1; Raffinose 10% wt, pH adjusted) [mm]
1 | O=C[C@H](O)[C@@H](O)[C@@H](O)[C@H](O)CO [Galactose, D-galactose] | 11.5 | induced the inhibitory activity | 12 | 23 | – | – | – | – | – | – | – | – | – | – | – | –
2 | OC[C@H]1O[C@H](OC[C@H]2O[C@H](O[C@]3(CO)O[C@H](CO)[C@@H](O)[C@@H]3O)[C@H](O)[C@@H](O)[C@@H]2O)[C@H](O)[C@@H](O)[C@H]1O [Raffinose, D-(+) Raffinose pentahydrate] | – | induced the inhibitory activity | – | – | 22.16 | 31 | 7 | 0 | 17 | 0 | 0 | 0 | 15 | 0 | 0 | 0
